This note sets out measurements from patent publication US20260184707A1, “PHARMACEUTICAL COMPOUNDS FOR THE TREATMENT OF COMPLEMENT MEDIATED DISORDERS” (ALEXION PHARMACEUTICALS, INC., priority 2022, published 2026).

The target of the test is T1, Human complement C1s enzyme (Homo sapiens, UniProt P09871).
T1 construct: purified from human serum, Complement Technology, Inc; purchased Complement Technology, Inc; host or cells: human serum (plasma-derived native protein)
T1 sequence (P09871 438-688 limits assumed): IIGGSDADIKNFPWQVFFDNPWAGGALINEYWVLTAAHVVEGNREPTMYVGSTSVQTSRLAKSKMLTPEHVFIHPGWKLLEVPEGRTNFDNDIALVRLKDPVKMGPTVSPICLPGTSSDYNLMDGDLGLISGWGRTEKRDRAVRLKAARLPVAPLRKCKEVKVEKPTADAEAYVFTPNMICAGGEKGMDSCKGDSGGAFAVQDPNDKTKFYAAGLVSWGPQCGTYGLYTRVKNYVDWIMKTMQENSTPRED
T1 sequence (P09871 16-437 partner limits assumed): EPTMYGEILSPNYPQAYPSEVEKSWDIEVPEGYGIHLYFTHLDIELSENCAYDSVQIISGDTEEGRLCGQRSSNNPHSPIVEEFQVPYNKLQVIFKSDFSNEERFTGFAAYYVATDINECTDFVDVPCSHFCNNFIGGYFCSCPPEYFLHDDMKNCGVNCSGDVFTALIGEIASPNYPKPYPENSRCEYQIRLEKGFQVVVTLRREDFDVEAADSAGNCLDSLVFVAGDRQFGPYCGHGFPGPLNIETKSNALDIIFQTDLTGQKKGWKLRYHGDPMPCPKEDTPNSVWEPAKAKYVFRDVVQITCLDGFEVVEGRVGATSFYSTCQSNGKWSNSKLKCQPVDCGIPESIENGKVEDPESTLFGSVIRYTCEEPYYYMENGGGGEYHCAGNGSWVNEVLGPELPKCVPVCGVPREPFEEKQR
The test is described as follows: Human C1s enzyme assay. Type of test: biochemical. The conditions noted are these: human complement C1s enzyme 1.16 nM, substrate Z-L-Lys-SBzl, A405; read-out: IC50 (Stars). The method in brief:
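Serum-purified human C1s (1.16 nM final) preincubated 5 min at room temperature with compound in 50 mM Tris, 1 M NaCl, pH 7.5. Z-L-Lys-SBzl and DTNB added at 100 μM each; A405 recorded every 30 s. IC50 from nonlinear regression of reaction rates versus compound concentration.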

Some results are limits rather than exact numbers.

The IC50 is the concentration needed to halve the response being measured.

Regarding `O=C(Cn1c(-c2ccccc2)ncc(NC(=O)CNC(=O)c2ccc(Oc3ccccc3)cc2)c1=O)NCc1cc2cnccc2[nH]1` [Compound 90, N-(2-((1-(2-(((1H-pyrrolo[3,2-c]pyridin-2-yl)methyl)amino)-2-oxoethyl)-6-oxo-2-phenyl-1,6-dihydropyrimidin-5-yl)-amino)-2-oxoethyl)-4-phenoxy-benzamide], the IC50 was less than 100 nM.

In the case of `CP(=O)(O)c1ccc(CCCNc2cnc(-c3ccccc3)n(CC(=O)NCc3cc4cnccc4[nH]3)c2=O)cc1` [Compound 91, (4-(3-((1-(2-(((1H-pyrrolo[3,2-c]pyridine-2-yl)methyl)amino)-2-oxoethyl)-6-oxo-2-phenyl-1,6-dihydropyrimidin-5-yl)amino)propyl)phenyl)(methyl)phosphinic acid], the IC50 is less than 100 nM.

For `O=C(Cn1c(-c2ccccc2)ncc(NC(=O)c2ccc(-c3ccc(F)cc3F)cc2)c1=O)NCc1cc2cnccc2[nH]1` [Compound 92, N-(1-(2-(((1H-pyrrolo[3,2-c]pyridin-2-yl)methyl)amino)-2-oxoethyl)-6-oxo-2-phenyl-1,6-dihydropyrimidin-5-yl)-2′,4′-difluoro-[1,1′-biphenyl]-4-carboxamide], the IC50 is less than 100 nM.

Regarding `O=C(Cn1c(-c2ccccc2)ncc(NC(=O)c2ccc(-c3cnco3)cc2)c1=O)NCc1cc2cnccc2[nH]1` [Compound 93, N-(1-(2-(((1H-pyrrolo[3,2-c]pyridin-2-yl)methyl)amino)-2-oxoethyl)-6-oxo-2-phenyl-1,6-dihydropyrimidin-5-yl)-4-(oxazol-5-yl)benzamide], the IC50 was less than 100 nM.

For the compound `O=C(Cn1c(-c2ccccc2)ncc(NC(=O)c2ccc(Oc3nccs3)cc2)c1=O)NCc1cc2cnccc2[nH]1` [Compound 94, N-(1-(2-(((1H-pyrrolo[3,2-c]pyridin-2-yl)methyl)amino)-2-oxoethyl)-6-oxo-2-phenyl-1,6-dihydropyrimidin-5-yl)-4-(thiazol-2-yloxy)benzamide], the IC50 is less than 100 nM.

As to `CO[C@@H]1CO[C@H]2[C@@H]1OC[C@H]2OCCCNc1cnc(-c2ccccc2)n(CC(=O)NCc2cc3cnccc3[nH]2)c1=O` [Compound 95, N-((1H-pyrrolo[3,2-c]pyridine-2-yl)methyl)-2-(5-((3-(((3R,3aR,6R,6aR)-6-methoxyhexahydrofuro[3,2-b]furan-3-yl)oxy)propyl)amino)-6-oxo-2-phenylpyrimidin-1(6H)-yl)acetamide], the IC50 is less than 100 nM.

Take `O=C(Cn1c(-c2ccc(S(F)(F)(F)(F)F)cc2)ncc(NCCCc2ccccc2)c1=O)NCc1cc2cnccc2[nH]1` [Compound 96, N-((1H-pyrrolo[3,2-c]pyridine-2-yl)methyl)-2-(6-oxo-2-(4-(pentafluoro-λ^6-sulfanyl)phenyl)-5-((3-phenylpropyl)amino)pyrimidin-1(6H)-yl)acetamide]: the IC50 is less than 100 nM.

On to `O=C(Cn1c(-c2ccccc2)ncc(NC(=O)c2ccc3oc4ccccc4c3c2)c1=O)NCc1cc2cnccc2[nH]1` [Compound 97, N-(1-(2-(((1H-pyrrolo[3,2-c]pyridin-2-yl)methyl)amino)-2-oxoethyl)-6-oxo-2-phenyl-1,6-dihydropyrimidin-5-yl)dibenzo [b,d]furan-2-carboxamide], for which the IC50 is less than 100 nM.

In the case of `COc1ccc(-c2ccc(C(=O)Nc3cnc(-c4ccccc4)n(CC(=O)NCc4cc5cnccc5[nH]4)c3=O)cc2)cc1` [Compound 98, N-(1-(2-(((1H-pyrrolo[3,2-c]pyridin-2-yl)methyl)amino)-2-oxoethyl)-6-oxo-2-phenyl-1,6-dihydropyrimidin-5-yl)-4′-methoxy-[1,1′-biphenyl]-4-carboxamide], the IC50 is less than 100 nM.

On to `O=C(Cn1c(-c2ccccc2)ncc(NC(=O)c2ccc(-c3ccc(F)cc3)cc2)c1=O)NCc1cc2cnccc2[nH]1` [Compound 99, N-(1-(2-(((1H-pyrrolo[3,2-c]pyridin-2-yl)methyl)amino)-2-oxoethyl)-6-oxo-2-phenyl-1,6-dihydropyrimidin-5-yl)-4′-fluoro-[1,1′-biphenyl]-4-carboxamide], for which the concentration for half-maximal inhibition (IC50) is less than 100 nM.

For `O=C(Cn1c(-c2ccccc2)cnc(NC(=O)c2ccc(-c3ccccc3)cc2)c1=O)NCc1cc2cnccc2[nH]1` [Compound 100, N-(4-(2-(((1H-pyrrolo[3,2-c]pyridin-2-yl)methyl)amino)-2-oxoethyl)-3-oxo-5-phenyl-3,4-dihydropyrazin-2-yl)-[1,1′-biphenyl]-4-carboxamide], the IC50 was less than 100 nM.

With `O=C(Cn1c(-c2ccccc2)cnc(NC(=O)c2ccc3oc4ccccc4c3c2)c1=O)NCc1cc2cnccc2[nH]1` [Compound 101, N-(4-(2-(((1H-pyrrolo[3,2-c]pyridin-2-yl)methyl)amino)-2-oxoethyl)-3-oxo-5-phenyl-3,4-dihydropyrazin-2-yl)dibenzo [b,d]furan-2-carboxamide], the IC50 is less than 100 nM.

`O=C(Cn1c(-c2ccccc2)ncc(NC(=O)c2cccc(-c3ccco3)c2)c1=O)NCc1cc2cnccc2[nH]1` [Compound 102, N-(1-(2-(((1H-pyrrolo[3,2-c]pyridin-2-yl)methyl)amino)-2-oxoethyl)-6-oxo-2-phenyl-1,6-dihydropyrimidin-5-yl)-3-(furan-2-yl)benzamide]: the IC50 is less than 100 nM.

With `O=C(Cn1c(-c2ccccc2)ncc(NCCCc2ccc(OC3COC3)cc2)c1=O)NCc1cc2cnccc2[nH]1` [Compound 103, N-((1H-pyrrolo[3,2-c]pyridine-2-yl)methyl)-2-(5-((3-(4-(oxetan-3-yl-oxy)phenyl)propyl)amino)-6-oxo-2-phenylpyrimidin-1(6H)-yl)acetamide], the IC50 was less than 100 nM.

Regarding `O=C(Cn1c(-c2ccccc2)ncc(NCCCc2ccc(S(F)(F)(F)(F)F)cc2)c1=O)NCc1cc2cnccc2[nH]1` [Compound 104, N-((1H-pyrrolo[3,2-c]pyridin-2-yl)methyl)-2-(6-oxo-5-((3-(4-(pentafluoro-lambda6-sulfaneyl)phenyl)propyl)-amino)-2-phenylpyrimidin-1(6H)-yl)acetamide], the half-maximal inhibitory concentration (IC50) was less than 100 nM.

Take `CS(=N)(=O)c1ccc(CCCNc2cnc(-c3ccccc3)n(CC(=O)NCc3cc4cnccc4[nH]3)c2=O)cc1` (stereo not shown) [Compound 105, N-((1H-pyrrolo[3,2-c]pyridine-2-yl)methyl)-2-(5-((3-(4-(S-methylsulfonimidoyl)phenyl)propyl)amino)-6-oxo-2-phenylpyrimidin-1(6H)-yl) acetamide]: the IC50 was less than 100 nM.

For the compound `O=C(Cn1c(-c2ccccc2)ncc(NC(=O)c2cnc(-c3ccccc3)s2)c1=O)NCc1cc2cnccc2[nH]1` [Compound 106, N-(1-(2-(((1H-pyrrolo[3,2-c]pyridin-2-yl)methyl)amino)-2-oxoethyl)-6-oxo-2-phenyl-1,6-dihydropyrimidin-5-yl)-2-phenylthiazole-5-carboxamide], the IC50 is less than 100 nM.

On to `O=C(Cn1c(-c2ccccc2)ncc(NC(=O)c2cnc(-c3ccccc3)o2)c1=O)NCc1cc2cnccc2[nH]1` [Compound 107, N-(1-(2-(((1H-pyrrolo[3,2-c]pyridin-2-yl)methyl)amino)-2-oxoethyl)-6-oxo-2-phenyl-1,6-dihydropyrimidin-5-yl)-2-phenyloxazole-5-carboxamide], for which the IC50 was less than 100 nM.

Turning to `O=C(Cn1c(-c2ccccc2)ncc(NC(=O)c2ccc(-c3ncco3)cc2)c1=O)NCc1cc2cnccc2[nH]1` [Compound 108, N-(1-(2-(((1H-pyrrolo[3,2-c]pyridin-2-yl)methyl)amino)-2-oxoethyl)-6-oxo-2-phenyl-1,6-dihydropyrimidin-5-yl)-4-(oxazol-2-yl)benzamide], the IC50 is less than 100 nM.

In the case of `COc1ccc(-c2cc(C(=O)Nc3cnc(-c4ccccc4)n(CC(=O)NCc4cc5cnccc5[nH]4)c3=O)on2)cc1` [Compound 109, N-(1-(2-(((1H-pyrrolo[3,2-c]pyridin-2-yl)methyl)amino)-2-oxoethyl)-6-oxo-2-phenyl-1,6-dihydropyrimidin-5-yl)-3-(4-methoxyphenyl)isoxazole-5-carboxamide], the IC50 was less than 100 nM.

Consider `O=C(Cn1c(-c2ccccc2)ncc(NC(=O)c2ccc(-c3ccccc3)s2)c1=O)NCc1cc2cnccc2[nH]1` [Compound 110, N-(1-(2-(((1H-pyrrolo[3,2-c]pyridin-2-yl)methyl)amino)-2-oxoethyl)-6-oxo-2-phenyl-1,6-dihydropyrimidin-5-yl)-5-phenylthiophene-2-carbox-amide], for which the IC50 was less than 100 nM.

In the case of `O=C(Cn1c(-c2ccccc2)ncc(NC(=O)c2coc(-c3ccccc3)n2)c1=O)NCc1cc2cnccc2[nH]1` [Compound 111, N-(1-(2-(((1H-pyrrolo[3,2-c]pyridin-2-yl)methyl)amino)-2-oxoethyl)-6-oxo-2-phenyl-1,6-dihydropyrimidin-5-yl)-2-phenyloxazole-4-carboxamide], the IC50 is less than 100 nM.
